Assay [1] has as its system FPAP (fipronil aptamer with primers) (DNA, aptamer) TGTACCGTCTGAGCGATTCGTACAGTTTCTGGAGGACTGGGCGGGGTGACGGTTATGAGCCAGTCAGTGTTAAGGAGTGC
In words: chronoamperometric binding titration on SPCE (streptavidin-HRP/TMB). The note with it: NaCl 100 mM, MgCl2 2 mM; Tris-HCl 20 mM; 30 min; apparent; immobilised compound (amide-linked to poly-2-aminobenzoic acid electrode); logistic fit.

Assay [2] deals with FPAS (fipronil aptamer Short) (DNA, aptamer) AGTTTCTGGAGGACTGGGCGGGGTGACGGTTATG
Briefly: electrochemical competitive replacement assay (chronoamperometry). Particulars: free fipronil displaces 1 µM-loaded aptamer from immobilised fipronil; 1 h.

Assay [3] has the same test system. Briefly: chronoamperometric binding titration on SPCE (streptavidin-HRP/TMB). Particulars: NaCl 100 mM, MgCl2 2 mM; Tris-HCl 20 mM; 30 min; apparent; immobilised compound (amide-linked to poly-2-aminobenzoic acid electrode); logistic fit.

The results in this text go back to publication PMC10761377 (2023).

Structures are written as SMILES.

On to `N#Cc1nn(-c2c(Cl)cc(C(F)(F)F)cc2Cl)c(N)c1S(=O)C(F)(F)F` (stereo not drawn), for which the KD in assay [1] stood at 94.3 ± 0.5 nM; in assay [3], 24.9 ± 1.7 nM. For the same molecule, the binding entry in assay [2] is “yes”.
